Assay results from US12240862B2, “Inhibitors of peptidylarginine deiminases” (Gilead Sciences, Inc., priority 2020, dated 2025).

Each molecule was assayed against T1, human PAD4 (Homo sapiens, UniProt Q9UM07) (assay: In vitro PAD4 BAEE biochemical assay). Conditions: human PAD4, BAEE substrate; 5 nM PAD4, 2 mM calcium chloride, 3 mM BAEE; geometric mean of multiple experiments.
T1 construct: human PAD4 (NM_012387), A2P663, was PCR amplified; His-SUMO (N, cleaved yes); made in house; host or cells: E. coli BL21(DE3)
T1 sequence (Q9UM07 2-663): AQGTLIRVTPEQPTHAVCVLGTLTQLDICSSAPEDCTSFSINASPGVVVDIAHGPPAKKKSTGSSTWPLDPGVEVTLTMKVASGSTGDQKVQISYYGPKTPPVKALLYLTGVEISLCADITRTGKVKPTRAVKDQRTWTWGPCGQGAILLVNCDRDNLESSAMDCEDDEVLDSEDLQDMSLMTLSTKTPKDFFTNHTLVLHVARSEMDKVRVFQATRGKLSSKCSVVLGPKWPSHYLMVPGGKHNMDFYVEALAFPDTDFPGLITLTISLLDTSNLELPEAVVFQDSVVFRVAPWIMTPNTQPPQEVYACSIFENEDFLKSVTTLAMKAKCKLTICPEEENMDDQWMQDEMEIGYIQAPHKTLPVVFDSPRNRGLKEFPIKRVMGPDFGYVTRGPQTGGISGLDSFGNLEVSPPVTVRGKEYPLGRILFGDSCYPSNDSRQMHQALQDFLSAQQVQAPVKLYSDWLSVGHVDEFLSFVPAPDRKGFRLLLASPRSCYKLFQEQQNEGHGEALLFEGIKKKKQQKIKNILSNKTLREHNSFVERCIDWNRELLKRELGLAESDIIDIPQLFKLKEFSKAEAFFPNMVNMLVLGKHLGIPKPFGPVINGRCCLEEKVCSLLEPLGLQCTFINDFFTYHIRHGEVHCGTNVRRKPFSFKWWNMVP
Procedure, shortened: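 Ammonia release from BAEE deimination monitored by o-phthalaldehyde amine coupling (1 h, 25 °C) after EDTA stop. Final conditions: 5 nM tag-free recombinant human PAD4 (E. coli), 2 mM CaCl2, 3 mM BAEE, pH 7.6 MOPS with DTT; 30 min compound preincubation, then 2 h reaction at 25 °C.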
With COc1cc(C(=O)N2CC[C@H]3CCNC[C@H]32)cc2nc(-c3cc4ccc(N(C(F)F)S(C)(=O)=O)nc4n3CC3CC3)c(C)n12 [Example 415, ~{N}-[2-[7-[(3~{a}~{R},7~{a}~{S})-2,3,3~{a},4,5,6,7,7~{a}-octahydropyrrolo[2,3-c]pyridine-1-carbonyl]-5-methoxy-3-methylimidazo[1,2-a]pyridin-2-yl]-1-(cyclopropylmethyl)pyrrolo [2,3-b]pyridin-6-yl]-~{N}-(difluoromethyl) methanesulfonamide] the IC50 was 27.9 µM. For COc1cc(C(=O)N2[C@H]3CC[C@@H]2[C@H](N)C3)cc2nc(-c3cc4ccc(-c5cccnc5C(F)(F)F)nc4n3CC3CC3)c(C)n12 [Example 551, [(1~{R},2~{R},4~{S})-2-amino-7-azabicyclo [2.2.1]heptan-7-yl]-[2-[1-(cyclopropylmethyl)-6-[2-(trifluoromethyl)pyridin-3-yl]pyrrolo[2,3-b]pyridin-2-yl]-5-methoxy-3-methylimidazo [1,2-a]pyridin-7-yl] methanone], the IC50 was 0.511 µM. In the case of CCc1ccc2cc(-c3nc4cc(C(=O)N5[C@H]6CC[C@@H]5[C@H](N)C6)cc(OC)n4c3C)n(CCCO)c2n1 [Example 499, [(1~{R},2~{R},4~{S})-2-amino-7-azabicyclo [2.2.1]heptan-7-yl]-[2-[6-ethyl-1-(3-hydroxypropyl)pyrrolo[2,3-b]pyridin-2-yl]-5-methoxy-3-methylimidazo[1,2-a]pyridin-7-yl]methanone], the IC50 is reported as 0.481 µM. COc1cc(C(=O)N2[C@H]3CC[C@@H]2[C@H](N)C3)cc2nc(-c3cc4ccc([C@@H](C)NC(=O)C(C)(C)C)nc4n3CC3CC3)c(C)n12 [Example 177, N—((R)-1-(2-(7-((1R,2R,4S)-2-amino-7-azabicyclo[2.2.1]heptane-7-carbonyl)-5-methoxy-3-methylimidazo[1,2-a]pyridin-2-yl)-1-(cyclopropylmethyl)-1H-pyrrolo[2,3-b]pyridin-6-yl)ethyl)pivalamide] was tested, and the IC50 was 0.0763 µM. Work on COc1cc(C(=O)N2[C@H]3CC[C@@H]2[C@H](N)C3)cc2nc(-c3cc4ccc(OCc5ccccc5)nc4n3CC3CC3)c(C)n12 [Example 627, [(1~{R},2~{R},4~{S})-2-amino-7-azabicyclo [2.2.1]heptan-7-yl]-[2-[1-(cyclopropylmethyl)-6-phenylmethoxypyrrolo[2,3-b]pyridin-2-yl]-5-methoxy-3-methylimidazo[1,2-a]pyridin-7-yl]methanone] yielded an IC50 of 3.36 µM. Molecule COc1cc(C(=O)N[C@H]2CNC[C@@H](C)C2)cc2nc(-c3cc4ccc(N(C(F)F)S(C)(=O)=O)nc4n3CC3CC3)c(C)n12 [Example 317, 2-[1-(cyclopropylmethyl)-6-[difluoromethyl (methylsulfonyl)amino]pyrrolo[2,3-b]pyridin-2-yl]-5-methoxy-3-methyl-~{N}-[(3~{R},5~{S})-5-methylpiperidin-3-yl] imidazo[1,2-a]pyridine-7-carboxamide] has an IC50 of 0.813 µM. Work on COc1cc(C(=O)N2[C@H]3CC[C@@H]2[C@H](N)C3)cc2nc(-c3cc4ccc([C@@H](C)NC(=O)C5(C)CC(F)(F)C5)nc4n3CC3CC3)c(C)n12 [Example 84, ~{N}-[(1~{R})-1-[2-[7-[(1~{R},2~{R},4~{S})-2-amino-7-azabicyclo[2.2.1]heptane-7-carbonyl]-5-methoxy-3-methylimidazo [1,2-a]pyridin-2-yl]-1-(cyclopropylmethyl)pyrrolo [2,3-b]pyridin-6-yl]ethyl]-3,3-difluoro-1-methylcyclobutane-1-carboxamide] yielded an IC50 of 0.0597 µM. COc1cc(C(=O)N2[C@H]3CC[C@@H]2[C@H](N)C3)cc2nc(-c3cc4ccc([C@@H](C)NC(=O)C56CC(F)(C5)C6)nc4n3CC3CC3)c(C)n12 [Example 169, N—((R)-1-(2-(7-((1R,2R,4S)-2-amino-7-azabicyclo[2.2.1]heptane-7-carbonyl)-5-methoxy-3-methylimidazo[1,2-a]pyridin-2-yl)-1-(cyclopropylmethyl)-1H-pyrrolo[2,3-b]pyridin-6-yl)ethyl)-3-fluorobicyclo[1.1.1]pentane-1-carboxamide] showed an IC50 of 0.0685 µM. Work on COc1cc(C(=O)N2[C@H]3CC[C@@H]2[C@H](N)C3)cc2nc(-c3cc4ccc([C@@H](C)NC(=O)C5CCC(F)(F)CC5)nc4n3CC3CC3)c(C)n12 [Example 66, ~{N}-[(1~{R})-1-[2-[7-[(1~{R},2~{R},4~{S})-2-amino-7-azabicyclo [2.2.1]heptane-7-carbonyl]-5-methoxy-3-methylimidazo [1,2-a]pyridin-2-yl]-1-(cyclopropylmethyl)pyrrolo[2,3-b]pyridin-6-yl]ethyl]-4,4-difluorocyclohexane-1-carboxamide] yielded an IC50 of 0.0685 µM. CCc1ccc2cc(-c3nc4cc(C(=O)N5[C@H]6CC[C@@H]5[C@H](N)C6)cc(OC)n4c3C)n(CCS(C)(=O)=O)c2n1 [Example 498, [(1~{R},2~{R},4~{S})-2-amino-7-azabicyclo [2.2.1]heptan-7-yl]-[2-[6-ethyl-1-(2-methylsulfonylethyl)pyrrolo[2,3-b]pyridin-2-yl]-5-methoxy-3-methylimidazo[1,2-a]pyridin-7-yl]methanone] gave an IC50 of 0.673 µM. COc1cc(C(=O)N[C@@H]2C[C@@H]3CC[C@H]2N3)cc2nc(-c3cc4ccc(N(C(F)F)S(C)(=O)=O)nc4n3CC3CC3)c(C)n12 [Example 312, N-[(1R,2R,4S)-7-azabicyclo[2.2.1]heptan-2-yl]-2-[1-(cyclopropylmethyl)-6-[difluoromethyl (methylsulfonyl)amino]pyrrolo[2,3-b]pyridin-2-yl]-5-methoxy-3-methyl-imidazo[1,2-a] pyridine-7-carboxamide] was tested, and the IC50 was 31.2 µM. COc1cc(C(=O)N2[C@H]3CC[C@@H]2[C@H](N)C3)cc2nc(-c3cc4ccc([C@@H](C)NC(=O)C5(OC)CCC5)nc4n3CC3CC3)c(C)n12 [Example 41, ~{N}-[(1~{R})-1-[2-[7-[(1~{R},2~{R},4~{S})-2-amino-7-azabicyclo [2.2.1]heptane-7-carbonyl]-5-methoxy-3-methylimidazo [1,2-a]pyridin-2-yl]-1-(cyclopropylmethyl)pyrrolo[2,3-b]pyridin-6-yl]ethyl]-1-methoxycyclobutane-1-carboxamide] showed an IC50 of 0.027 µM. In the case of COc1cc(C(=O)N[C@H]2CNC[C@H](F)C2)cc2nc(-c3cc4ccc(N(C(F)F)S(C)(=O)=O)nc4n3CC3CC3)c(C)n12 [Example 306, 2-[1-(cyclopropylmethyl)-6-[difluoromethyl (methylsulfonyl)amino]pyrrolo[2,3-b]pyridin-2-yl]-~{N}-[(3~{R},5~{R})-5-fluoropiperidin-3-yl]-5-methoxy-3-methylimidazo [1,2-a]pyridine-7-carboxamide], the IC50 is reported as 1.61 µM. Work on COc1cc(C(=O)N2[C@H]3CC[C@@H]2[C@H](N)C3)cc2nc(-c3cc4ccc([C@@H](C)N5CCCCC5=O)nc4n3CC3CC3)c(C)n12 [Example 271] yielded an IC50 of 0.0356 µM. CCc1ccc2cc(-c3nc4cc(C(=O)N5[C@H]6CC[C@@H]5[C@H](N)C6)cc(OC)n4c3C)n(CCC(C)(C)C#N)c2n1 [Example 508, 4-[2-[7-[(1~{R},2~{R}, 4~{S})-2-amino-7-azabicyclo[2.2.1]heptane-7-carbonyl]-5-methoxy-3-methylimidazo[1,2-a]pyridin-2-yl]-6-ethylpyrrolo [2,3-b]pyridin-1-yl]-2,2-dimethylbutanenitrile] gave an IC50 of 0.277 µM. With CCc1ccc2cc(-c3nc4cc(C(=O)N5CCCC(NCCO)C5)cc(OC)n4c3C)n(CC3CC3)c2n1 (stereo not drawn) [Example 581, [2-[1-(cyclopropylmethyl)-6-ethylpyrrolo[2,3-b]pyridin-2-yl]-5-methoxy-3-methylimidazo[1,2-a]pyridin-7-yl]-[3-(2-hydroxyethylamino)piperidin-1-yl]methanone] the IC50 was 23 µM. For COc1cc(C(=O)N2[C@H]3CC[C@@H]2[C@H](N)C3)cc2nc(-c3cc4ccc([C@@H](C)NC(=O)[C@H]5[C@@H]6CC(F)(F)C[C@@H]65)nc4n3CC3CC3)c(C)n12 [Example 8, (1~{R},5~{S})-~{N}-[(1~{R})-1-[2-[7-[(1~{R}, 2~{R},4~{S})-2-amino-7-azabicyclo[2.2.1]heptane-7-carbonyl]-5-methoxy-3-methylimidazo [1,2-a]pyridin-2-yl]-1-(cyclopropylmethyl)pyrrolo[2,3-b]pyridin-6-yl]ethyl]-3,3-difluorobicyclo[3.1.0] hexane-6-carboxamide], the IC50 was 0.144 µM. COc1cc(C(=O)N2CCC[C@@H](N)C2)cc2nc(-c3cc4ccc(C(C)(F)F)nc4n3CC3CC3)c(C)n12 [Example 596, [(3~{R})-3-aminopiperidin-1-yl]-[2-[1-(cyclopropylmethyl)-6-(1,1-difluoroethyl)pyrrolo [2,3-b]pyridin-2-yl]-5-methoxy-3-methylimidazo [1,2-a]pyridin-7-yl] methanone] was tested, and the IC50 was 0.997 µM. In the case of COc1cc(C(=O)N2[C@H]3CC[C@@H]2[C@H](N)C3)cc2nc(-c3cc4ccc([C@@H](C)NC(=O)c5cnn(C(F)F)c5)nc4n3CC3CC3)c(C)n12 [Example 107], the IC50 is reported as 0.0443 µM. In the case of COc1cc(C(=O)N2CCC[C@@H](N)C2)cc2nc(-c3cc4ccc(-c5cccnc5C)nc4n3CC3CC3)c(C)n12 [Example 604, [(3~{R})-3-aminopiperidin-1-yl]-[2-[1-(cyclopropylmethyl)-6-(2-methylpyridin-3-yl)pyrrolo[2,3-b]pyridin-2-yl]-5-methoxy-3-methylimidazo[1,2-a]pyridin-7-yl]methanone], the IC50 is reported as 0.427 µM. For COc1cc(C(=O)N2CCC[C@@H](N)C2)cc2nc(-c3cc4ccc(-c5cccc6c5CNC6=O)nc4n3CC3CC3)c(C)n12 [Example 602, 4-[2-[7-[(3~{R})-3-aminopiperidine-1-carbonyl]-5-methoxy-3-methylimidazo[1,2-a]pyridin-2-yl]-1-(cyclopropylmethyl)pyrrolo[2,3-b]pyridin-6-yl]-2,3-dihydroisoindol-1-one], the IC50 was 2.15 µM.
